Entries after “also recorded” stand apart in the source; their conditions may differ. Where a SMILES comes first, the peptide text is derived from it. [ ]: non-standard residue; d: D form.
Assays:
cardiomyocytes = assay: Norepinephrine-induced cardiomyocyte hypertrophy, cell area and perimeter; type: cell-based, rat; conditions: 100 μM peptide, norepinephrine 10 μM
Method: Cardiac myocytes were isolated from neonatal Sprague-Dawley rat ventricles. Cardiac myocytes were plated at 70% final density in gelatin-coated wells (12-well plates) or in 60-mm Petri dishes and maintained at 37° C. in a humidified atmosphere of 5% CO2/95% air for 24 h in Dulbecco's Modified Eagle's medium [(DMEM)/M199](4:1) containing 10% fetal bovine serum and 5% fetal calf serum. Serum was withdrawn 24 h before preincubation with 1, 10 or 100 μM retro-inverse angiotensin-(1-9) for 1 h; then, 10 μM norepinephrine (Sigma, St Louis, Missouri, USA) were added and the cultures were incubated for 24 h. […] After centrifugation at 12,000 r.p.m. for 15 min at 4° C., the supernatat was recovered; total protein content was determined by using Bradford (BioRad protein assay, BioRad, Hercules, CA, USA). […]
Cardiomyocyte hypertrophy is characterized by an increase of cell area and perimeter. Cell area and perimeter were analyzed as follows. […] Cell area and perimeter were determined in cells fixed with 4% paraformaldehyde for 10 min and permeabilized with 0.2% Triton X100 for 6 min. […] Cell staining was evaluated by epifluorescence microscopy. At least 100 cells from randomly selected fields were analyzed using Image J software (NIH). […]

[1] = tested on: spontaneously hypertensive rats (SHR); assay: Cardiac hypertrophy by morphometry analysis in SHR; type: in vivo, rat; conditions: SHR, 1,200 ng/kg/min, 14 days, left ventricle
Method: (§1) Experimental animal model. All procedures were performed in accordance with the Guide for the Care and Use of Laboratory Animals published by the U.S. National Institutes of Health (NIH Publication 85 23, 1985) and approved by our Institutional Bioethics Committee. The animals were housed under the continuous professional monitoring of the Medical Veterinary staff in the animal facility of the Pontificia Universidad Católica de Chile, under the following conditions: 12-h light-dark cycle; 21° C. ambient temperature; 50% humidity; adequate ventilation; noise-free environment; and food and water ad libitum. Male spontaneously hypertensive rats (SHR, age 12 weeks) and normotensive Wistar Kyoto rats (WKY, 12 weeks age) were used. […] Systolic blood pressure (SBP), diastolic blood pressure (DBP) and body weight (BW) were measured at the end of the treatment period and the animals were then sacrificed.
Measurement of cardiac hypertrophy by morphometry analysis. […] Cardiomyocyte size (area and perimeter) was determined as described by Ocaranza et al. (J. Hypertens. 2010; 28:1054-1064). […]

[2] = tested on: spontaneously hypertensive rats (SHR); assay: Cardiac-resident macrophage phenotype M1/M2 in SHR, flow cytometry; type: in vivo, rat; conditions: SHR, 1,200 ng/kg/min, 14 days
Method: as §1, with “sacrificed. […]” for “sacrificed.”

CC[C@@H](C)[C@@H](NC(=O)[C@@H](Cc1c[nH]cn1)NC(=O)[C@H]1CCCN1C(=O)[C@@H](Cc1ccccc1)NC(=O)[C@H](N)Cc1c[nH]cn1)C(=O)N[C@H](Cc1ccc(O)cc1)C(=O)N[C@@H](C(=O)N[C@H](CCCNC(=N)N)C(=O)N[C@H](CC(=O)O)C(=O)O)C(C)C [retro-inverse angiotensin-(1-9), NH2-^DH^DF^DP^DH^DI^DY^DV^DR^DD-COOH] (H-[dH][dF][dP][dH][dI][dY][dV][dR][dD]-OH)
increase of cell area induced by norepinephrine (cardiomyocytes): inhibited, in a dose response manner
increase of cell perimeter induced by norepinephrine (cardiomyocytes): inhibited, in a dose response manner
increase of area of cardiomyocytes induced by hypertension [1]: reversed the increase
increase of perimeter of cardiomyocytes induced by hypertension [1]: reversed the increase
macrophages M1 in cardiac tissues [2]: reversed the increase; also recorded: more marked decrease in macrophages M1 than angiotensin-(1-9)
macrophages M2 in cardiac tissues [2]: increases the macrophages M2
